As usually defined, the solubility is how much of the substance goes into solution per volume.

The values below come from patent publication US11739083B2, “Disposable sensor chip with reagent including 2-substituted benzothiazolyl-3-substituted phenyl-5-substituted sulfonated phenyl-2H-tetrazolium salt” (TERUMO KABUSHIKI KAISHA, priority 2016, dated 2023).

Data set [1] can be described thus: Evaluation of sensitivity (colour development with glucose, GDH-FAD, m-PMS, nickel; gradient versus WST-4). Here is the method: Separately, 100 μL of RO water was added to 7 mg of a glucose dehydrogenase that uses flavin adenine dinucleotide (FAD) as a coenzyme (GDH-FAD) (manufactured by TOYOBO CO., LTD., product No.: GLD-351), the enzyme was dissolved, and thus a GDH solution was produced. Furthermore, 200 μL of RO water was added to 3.5 mg of 1-methoxy-5-methylphenazium methyl sulfate (m-PMS) (manufactured by DOJINDO LABORATORIES), and the compound was dissolved therein. Thus, an s-PMS solution was produced. 1 mL of RO water was added to 129 mg of nickel chloride to dissolve the salt, and thus a nickel solution was produced.
40 μL of the reaction solution was added to 10 μL each of an aqueous glucose solution at a concentration of 125 mg/dL, an aqueous glucose solution at a concentration of 250 mg/dL, and an aqueous glucose solution at a concentration of 1,000 mg/dL, and the mixtures were allowed to develop color. The spectra were measured with a spectrophotometer (measurement cell length: 50 μm) (n=1). […] Thus, the gradient (gradientsample) was determined.
40 μL of the control reaction solution was added to 10 μL each of an aqueous glucose solution at a concentration of 125 mg/dL, an aqueous glucose solution at a concentration of 250 mg/dL, and an aqueous glucose solution at a concentration of 1,000 mg/dL, and the mixtures were allowed to develop color. The spectra were measured with a spectrophotometer (measurement cell length: 50 μm) (n=1). For each of the spectra, the absorbance at 650 nm, which is the measurement wavelength (λmax) of WST-4, was measured, and the glucose concentration in the colored solution and the absorbance were plotted on the horizontal axis and the vertical axis, respectively. Thus, the gradient (gradientWST-4) was determined.
FIG. 2 is a graph showing the relationship between the glucose concentration and the absorbance of produced formazan in relation to the tetrazolium compound 1 and WST-4. […] Meanwhile, the gradient serves as an index for the color development intensity of each compound. Therefore, when the value obtained by dividing the gradientsample by the gradientWST-4 (gradientsample/gradientWST-4) is greater than one-fold, it is implied that the intensity of color development on the longer wavelength side is higher compared to WST-4, which is a well-known indicator reagent.

A short description of data set [2]: Evaluation of stability (absorbance increase of measurement solution over 6 hours). The note with it: FIG. 3; absorbance increase per hour over 6 hours.
Procedure: To 0.02 mmol of each compound, 75 μL of RO water and 100 μL of a 0.5 M MOPS solution (pH 7.2) were added, and the compound was dissolved therein. The solution was used as a sample.
To 175 μL of this sample, 10 μL of the GDH solution, 5 μL of the m-PMS solution, and 10 μL of the nickel solution, all of which had been produced in the same manner as in the above section (Evaluation of sensitivity), were added, and thereby a measurement solution was produced.
As a control, 85 μL of RO water and 100 μL of a 0.5 M MOPS solution (pH 7.2) were added to 11.6 mg of 2-benzothiazolyl-3-(4-carboxy-2-methoxyphenyl)-5-[4-(2-sulfoethylcarbamoyl)phenyl]-2H-tetrazolium (WST-4), and the compound was dissolved. Thus, a control sample was produced. […] Thus, a control reaction solution was produced.
At the time of production of the measurement solution (0 hour), and after 1 hour, 2 hours, and 6 hours from the production, the spectra of the measurement solutions produced as described above were measured using a spectrophotometer (measurement cell length: 50 μm) (n=1). For each spectrum, the absorbance at the maximum absorption wavelength (λmax) of each compound as determined above was measured. The absorbances measured at the time of production of the measurement solution (0 hour) and after 6 hours from the production were designated as Abs0 h and Abs6 h, respectively. […]
A short description of data set [3]: Maximum absorption wavelength (λmax) of formazan-nickel chelate by spectrophotometer. The format is physicochemical. As to conditions: chelate of formazan and nickel ion, aqueous MOPS, cell length 10 mm, n=1. The protocol:
10 mM aqueous solution of MOPS was added to each of the formazan compounds so as to obtain a final concentration of […], and thereby 100 μL of a sample was produced. At this time, all of the samples were red-brown in color. Apart from this, a 1 M aqueous solution of nickel ion was produced.
For mixed solutions of various compounds in an aqueous solution of formazan and an aqueous solution of nickel, the spectra were measured with a spectrophotometer (measurement cell length: 10 mm) (n=1). Based on each of the spectra, the maximum absorption wavelength (λmax) (nm) of each of the compounds in formazan was determined. From FIG. 1, it is understood that the maximum absorption wavelength (λmax) of the chelate compound of formazan compound 1 and nickel ion is 630 nm.
The absorbance at the maximum absorption wavelength is denoted as 100%.

The nature of data set [4]: Evaluation of water-solubility (visual check for precipitate). The format is physicochemical. As to conditions: RO water / 0.5 M MOPS solution (1:1), aqueous buffer, thermodynamic from solid; RO water and 0.5 M MOPS pH 7.2; 200, 100, 20 mM; stirred 5 minutes. Here is the method: After the mixture was stirred for 5 minutes, a precipitate was checked by visual inspection. […] After the mixture was stirred for 5 minutes, a precipitate was checked by visual inspection. […] After the mixture was stirred for 5 minutes, a precipitate was checked by visual inspection.

In the case of `COc1ccc2nc(-n3nc(-c4ccc(S(=O)(=O)O)cc4S(=O)(=O)[O-])n[n+]3-c3ccc(OC)c(S(=O)(=O)O)c3)sc2c1` [Example 1], the “ratio gradientsample/gradientWST-4” value in data set [1] (FIG. 2) is on record as “about 2.4”. Besides, in data set [1] (FIG. 2, compound 1 at its λmax with nickel, WST-4 at 650 nm without nickel), the “gradient (absorbance versus glucose concentration)” value is given as 0.0063. For the same molecule, the “Sensitivity, comparison with Comparative Example 5 (rating)” value in data set [1] (gradientsample/gradientWST-4, absorbance at λmax versus glucose concentration, cell length 50 μm) is “⊙ (gradientsample/gradientWST-4) was 2 or greater)”. Also, in data set [2], the “[(Abs6 h−Abs0 h)/6] value” is on record as “about 0.008”. Besides, in data set [3], the “Maximum absorption wavelength (λmax)” value stood at 630 nm. The molecule also gave a solubility at 5 min in data set [4] of more than 200 mM.
